Laboratory results: the supplement of paper PMC10307832

How the values were obtained:
Assay in all cases: relative viability (nuclei count vs DMSO), 5 days (fraction); higher = more cells survive
[1] = compound: Cn1cc(-c2cnn3c(N)c(Br)c([C@@H]4CCCNC4)nc23)cn1 + Nc1nc2[nH]cc(CCc3ccc(C(=O)N[C@@H](CCC(=O)O)C(=O)O)cc3)c2c(=O)[nH]1 [Pemetrexed] (partner 0.2 µM)
How it was run: (§1)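 Relative viability is defined as nuclei in treated wells over nuclei in vehicle wells. Duplicate plates were run and medians reported. Lung cancer cell lines in 1536-well plates were dosed by pin tool one day after seeding, with one drug or with a fixed anchor-drug dose plus five library-drug doses (not always all listed) in √10 steps, and nuclei were counted after 5 days.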

[2] = compound: Cn1cc(-c2cnn3c(N)c(Br)c([C@@H]4CCCNC4)nc23)cn1 + O=C(CCCCCCC(=O)Nc1ccccc1)NO [Vorinostat] (partner 1 µM)
How it was run: as §1

[3] = compound: Cn1cc(-c2cnn3c(N)c(Br)c([C@@H]4CCCNC4)nc23)cn1 + CC1(C)CCC(c2ccc(Cl)cc2)=C(CN2CCN(c3ccc(C(=O)NS(=O)(=O)c4ccc(N[C@H](CCN5CCOCC5)CSc5ccccc5)c(S(=O)(=O)C(F)(F)F)c4)cc3)CC2)C1 [Navitoclax] (partner 0.5 µM)
How it was run: as §1

[4] = compound: Cn1cc(-c2cnn3c(N)c(Br)c([C@@H]4CCCNC4)nc23)cn1 + C[C@]1(O)C[C@@H](c2nc(-c3ccc4ccc(-c5ccccc5)nc4c3)c3c(N)nccn32)C1 [Linsitinib] (partner 1 µM)
How it was run: as §1

Cell Line | relative viability ([1]; first compound 0.05 µM) | relative viability ([1]; first compound 0.1581 µM) | relative viability ([1]; first compound 0.5 µM) | relative viability ([1]; first compound 1.581 µM) | relative viability ([1]; first compound 5 µM) | relative viability ([2]; first compound 0.05 µM) | relative viability ([2]; first compound 0.1581 µM) | relative viability ([2]; first compound 0.5 µM) | relative viability ([2]; first compound 1.581 µM) | relative viability ([2]; first compound 5 µM) | relative viability ([3]; first compound 0.05 µM) | relative viability ([3]; first compound 0.1581 µM) | relative viability ([3]; first compound 0.5 µM) | relative viability ([3]; first compound 1.581 µM) | relative viability ([3]; first compound 5 µM) | relative viability ([4]; first compound 0.05 µM) | relative viability ([4]; first compound 0.1581 µM) | relative viability ([4]; first compound 0.5 µM) | relative viability ([4]; first compound 1.581 µM) | relative viability ([4]; first compound 5 µM)
201T | 0.362 | 0.327 | 0.315 | 0.264 | 0.294 | 0.938 | 1.05 | 0.996 | 0.897 | 0.549 | 1.14 | 1.18 | 1.16 | 1.32 | 1.22 | 1.08 | 1.05 | 1.12 | 0.97 | 0.936
A-427 | 0.938 | 0.99 | 1.03 | 0.837 | 0.46 | 0.817 | 0.915 | 0.843 | 0.816 | 0.406 | 1.06 | 1 | 0.9 | 0.953 | 0.733 | 1.12 | 1.15 | 1.06 | 1.06 | 1
ABC-1 | – | – | – | – | – | – | 0.955 | 1.04 | 1.02 | 0.356 | – | – | – | – | – | 0.801 | 1.01 | 0.781 | 0.716 | 0.288
BEN | 0.763 | 0.825 | 0.719 | 0.708 | 0.616 | 0.659 | 0.531 | 0.558 | 0.644 | 0.508 | 0.0592 | 0.289 | 0.0589 | 0.0666 | 0.0768 | 1.04 | 0.977 | 0.918 | 0.686 | 0.738
CAL-12T | 1.45 | 0.778 | 0.892 | 0.623 | 0.393 | 0.848 | 0.775 | 0.664 | 0.56 | 0.228 | 1.36 | 1.24 | 1.12 | 0.755 | 0.159 | 0.786 | 0.929 | 0.809 | 0.616 | 0.262
COR-L23 | 0.196 | 0.178 | 0.178 | 0.186 | 0.139 | 0.387 | 0.273 | 0.24 | 0.187 | 0.117 | 0.854 | 1.13 | 0.973 | 0.965 | 0.346 | 0.835 | 1.16 | 1.05 | 0.688 | 0.363
COR-L 105 | 0.939 | 0.921 | 1.08 | 0.92 | 0.82 | 0.921 | 0.723 | 0.756 | 0.526 | 0.616 | 0.742 | 0.693 | 0.649 | 0.713 | 0.454 | 0.898 | 0.719 | 0.89 | 0.878 | 0.645
Calu-6 | – | – | – | – | – | – | – | – | – | – | 0.997 | 0.597 | 0.68 | 0.211 | 0.146 | 0.898 | 1.1 | 0.945 | 0.52 | 0.176
ChaGo-K-1 | 0.259 | 0.248 | 0.273 | 0.28 | 0.247 | 0.736 | 0.785 | 0.779 | 0.687 | 0.753 | 0.966 | 0.967 | 0.981 | 0.737 | 0.607 | – | – | – | – | –
EKVX | 0.497 | 0.293 | 0.307 | 0.241 | 0.206 | 0.736 | 0.723 | 0.712 | 0.638 | 0.691 | 0.828 | 1.13 | 0.911 | 0.918 | 0.782 | 1.02 | 1.06 | 0.946 | 0.68 | 0.874
EMC-BAC-2 | 0.478 | 0.386 | 0.399 | 0.433 | 0.462 | 0.275 | 0.351 | 0.35 | 0.46 | 0.23 | 1.26 | 1.25 | 1.14 | 1.01 | 1.43 | 0.834 | 0.904 | 0.849 | 0.663 | 0.836
EPLC-272H | 0.268 | 0.186 | 0.139 | 0.106 | 0.098 | 0.571 | 0.275 | 0.239 | 0.266 | 0.15 | 1.2 | 1.1 | 1.2 | 0.966 | 0.969 | 1.26 | 1.18 | 1.24 | 1.25 | 1.12
H3255 | 0.537 | 0.536 | 0.56 | 0.483 | 0.461 | 0.738 | 0.872 | 0.914 | 0.746 | 0.411 | 0.561 | 0.507 | 0.379 | 0.531 | 0.29 | 0.989 | 1.05 | 0.929 | 0.769 | 0.684
HARA | 0.228 | 0.213 | 0.223 | 0.141 | 0.141 | 0.62 | 0.511 | 0.511 | 0.433 | 0.556 | 1.11 | 1.21 | 1.25 | 1.05 | 0.725 | 1.11 | 1.03 | 1.23 | 0.761 | 0.402
HCC-15 | 0.206 | 0.232 | 0.227 | 0.226 | 0.207 | 0.922 | 1 | 0.9 | 0.804 | 0.705 | 0.803 | 0.792 | 0.635 | 0.626 | 0.669 | 0.98 | 0.997 | 0.824 | 0.838 | 0.829
HCC-44 | 0.608 | 0.586 | 0.674 | 0.321 | 0.369 | 1.08 | 1.13 | 1.22 | 1.08 | 1.12 | 0.94 | 1.05 | 1.23 | 0.916 | 1.18 | 0.685 | 0.872 | 0.821 | 0.65 | 0.631
HCC-78 | 0.912 | 0.842 | 0.869 | 0.869 | 0.743 | 0.431 | 0.609 | 0.478 | 0.41 | 0.416 | 0.851 | 0.794 | 0.796 | 0.737 | 0.56 | 0.507 | 0.519 | 0.524 | 0.604 | 0.385
